Source: publication PMC9505425, “Targeting of the Mitochondrial TET1 Protein by Pyrrolo[3,2-b]pyrrole Chelators” (International Journal of Molecular Sciences, 2022)
“And” between values parts separate entries of the source, which are not always exact repeats. Equal values may be shown once.

Legend:
Format in all cases: cell-based, human
[1] = tested on: U-118 MG cells; test: MTT cytotoxicity assay, U-118 MG; conditions: 48 h; for IC50: MTT
Procedure, shortened: (§1)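 Cells seeded at 1.0 × 10^5/well, grown 24 h, then exposed 48 h to compounds at 0.1–20 μM (≤1% DMSO); U118-MG in DMEM, H1299 in RPMI 1640, both with 10% FBS, 37 °C. MTT 2 h, formazan in DMSO read at 570 nm; IC50 relative to untreated cells (100%).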

[2] = MTT cytotoxicity assay, HF-P4; conditions: human, HF-P4 normal human dermal fibroblasts, repeats, read-out: Cell viability %; for viability at 48 h, 0.1 µM: HF-P4, 100 nM; for viability at 48 h, 0.5 µM: HF-P4, 500 nM; for viability at 48 h, 0.75 µM: HF-P4, 750 nM; for viability at 48 h, 1 µM: HF-P4, 1 uM; for viability at 48 h, 2.5 µM: HF-P4, 2.5 uM; for viability at 48 h, 5 µM: HF-P4, 5 uM; for viability at 48 h, 7.5 µM: HF-P4, 7.5 uM; for viability at 48 h, 10 µM: HF-P4, 10 uM; for viability at 48 h, 15 µM: HF-P4, 15 uM; for viability at 48 h, 20 µM: HF-P4, 20 uM
Procedure, shortened: (§2)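 Cells seeded at 1.0 × 10^5 per well, grown 24 h, then exposed 48 h to compounds at 0.1–20 μM (DMSO ≤1%). MTT added for 2 h, formazan dissolved in DMSO, absorbance read at 570 nm. IC50 calculated relative to untreated cells (100%).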

[3] = tested on: HF-P4 cells; test: MTT cytotoxicity assay, HF-P4; conditions: 48 h; for Cell viability %: repeats; for IC50: Homo sapiens, MTT
Procedure, shortened: as §2

[4] = tested on: H-1299 cells; test: MTT cytotoxicity assay, H-1299; conditions: for Cell viability % / IC50: 48 h; for IC50: NCI-H1299, MTT
Procedure, shortened: as §1

[5] = Homo sapiens, U-118-MG, U-118 MG, 100 nM, repeats, read-out: Cell viability %
[6] = Homo sapiens, U-118-MG, U-118 MG, 500 nM, repeats, read-out: Cell viability %
[7] = Homo sapiens, U-118-MG, U-118 MG, 1 uM, repeats, read-out: Cell viability %
[8] = Homo sapiens, U-118-MG, U-118 MG, 2.5 uM, repeats, read-out: Cell viability %
[9] = Homo sapiens, U-118-MG, U-118 MG, 5 uM, repeats, read-out: Cell viability %
[10] = Homo sapiens, U-118-MG, U-118 MG, 7.5 uM, repeats, read-out: Cell viability %
[11] = Homo sapiens, U-118-MG, U-118 MG, 10 uM, repeats, read-out: Cell viability %
[12] = Homo sapiens, U-118-MG, U-118 MG, 15 uM, repeats, read-out: Cell viability %
[13] = Homo sapiens, U-118-MG, U-118 MG, 20 uM, repeats, read-out: Cell viability %
[14] = U-118 MG, 100 nM, repeats, 0.1 µM
[15] = U-118 MG, 500 nM, repeats, 0.5 µM
[16] = U-118 MG, 750 nM, repeats, 0.75 µM
[17] = Homo sapiens, NCI-H1299, 48 h, H-1299, 100 nM, repeats, read-out: Cell viability %
[18] = Homo sapiens, NCI-H1299, 48 h, H-1299, 2.5 uM, repeats, read-out: Cell viability %
[19] = Homo sapiens, NCI-H1299, 48 h, H-1299, 5 uM, repeats, read-out: Cell viability %
[20] = Homo sapiens, NCI-H1299, 48 h, H-1299, 7.5 uM, repeats, read-out: Cell viability %
[21] = Homo sapiens, NCI-H1299, 48 h, H-1299, 10 uM, repeats, read-out: Cell viability %
[22] = Homo sapiens, NCI-H1299, 48 h, H-1299, 15 uM, repeats, read-out: Cell viability %
[23] = Homo sapiens, NCI-H1299, 48 h, H-1299, 20 uM, repeats, read-out: Cell viability %

Work on `Cc1ccc(-n2c(-c3ccc(C(=O)NN)cc3)cc3c2cc(-c2ccc(C(=O)NN)cc2)n3-c2ccc(C)cc2)cc1` [Compound 1] yielded a viability at 0.1 µM [1, 5] of 74.9%, a viability at 0.5 µM [1, 6] of 81.2% and a viability at 0.75 µM ([1]; Homo sapiens, U-118-MG, U-118 MG, 750 nM, repeats, read-out: Cell viability %) of 75.3%. It also gave a viability at 1 µM [1, 7] of 61.6%, a viability at 2.5 µM [1, 8] of 59.8% and a viability at 5 µM [1, 9] of 64.5%. The viability at 7.5 µM [1, 10] was 65.9%, the viability at 10 µM [1, 11] was 49.8% and the viability at 15 µM [1, 12] was 52.9%. For the same molecule, the viability at 20 µM [1, 13] was 32.4%, the IC50 ([1]; Homo sapiens, U-118-MG) was greater than 20 µM and the Cell viability % [1, 14] was 89.42% and 92.96%. The Cell viability % [1, 15] was 77.57% and 78.28%, the Cell viability % [1, 16] was 75.76% and 76.03% and the Cell viability % ([1]; U-118 MG, 1 uM, repeats) was 65.25% and 66.5%. The Cell viability % ([1]; U-118 MG, 2.5 uM, repeats) was 71.64% and 61.0448%, the Cell viability % ([1]; U-118 MG, 5 uM, repeats) was 72.2848% and 61.2% and the Cell viability % ([1]; U-118 MG, 7.5 uM, repeats) was 73.35% and 73.21%. For the same molecule, the Cell viability % ([1]; U-118 MG, 10 uM, repeats) was 65.4465% and 62.16%, the Cell viability % ([1]; U-118 MG, 15 uM, repeats) was 49.75% and 52.18% and the Cell viability % ([1]; U-118 MG, 20 uM, repeats) was 38.37% and 42.77%. It also gave a viability at 48 h, 0.1 µM [2] of 101%, a viability at 48 h, 0.5 µM [2] of 106% and a viability at 48 h, 0.75 µM [2] of 94%. For the same molecule, the viability at 48 h, 1 µM [2] was 105%, the viability at 48 h, 2.5 µM [2] was 94.3% and the viability at 48 h, 5 µM [2] was 80.7%. It also gave a viability at 48 h, 7.5 µM [2] of 77.3%, a viability at 48 h, 10 µM [2] of 70.5% and a viability at 48 h, 15 µM [2] of 67.1%. For the same molecule, the viability at 48 h, 20 µM [2] was 64%, the Cell viability % ([3]; HF-P4, 100 nM, 0.1 µM) was 110.5137% and 108.5444% and the Cell viability % ([3]; HF-P4, 500 nM, 0.5 µM) was 109.6499% and 91.3%. For the same molecule, the Cell viability % ([3]; HF-P4, 750 nM, 0.75 µM) was 108.0378% and 98.14%, the Cell viability % ([3]; HF-P4, 1 uM, 1 µM) was 114.0028% and 114.925% and the Cell viability % ([3]; HF-P4, 2.5 uM, 2.5 µM) was 106.4486% and 88.2524%. For the same molecule, the Cell viability % ([3]; HF-P4, 5 uM, 5 µM) was 90.58% and 81.47%, the Cell viability % ([3]; HF-P4, 7.5 uM, 7.5 µM) was 87.03% and 78.05% and the Cell viability % ([3]; HF-P4, 10 uM, 10 µM) was 75.94% and 65.94%. The Cell viability % ([3]; HF-P4, 15 uM, 15 µM) was 59.86% and 63.15%, the Cell viability % ([3]; HF-P4, 20 uM, 20 µM) was 64.65% and 61.04% and the IC50 [3] was greater than 20 µM. For the same molecule, the Cell viability % ([4]; H-1299, 100 nM, repeats, 0.1 µM) was 74.42% and 77.2%, the Cell viability % ([4]; H-1299, 500 nM, repeats, 0.5 µM) was 114.5756% and 80.35% and 108.7959% and the Cell viability % ([4]; H-1299, 750 nM, repeats, 0.75 µM) was 97.3% and 84.13% and 122.0664%. For the same molecule, the Cell viability % ([4]; H-1299, 1 uM, repeats, 1 µM) was 81.23% and 63.3%, the Cell viability % ([4]; H-1299, 2.5 uM, repeats, 2.5 µM) was 76.07% and 72.39% and the Cell viability % ([4]; H-1299, 5 uM, repeats, 5 µM) was 61.74% and 69.23%. For the same molecule, the Cell viability % ([4]; H-1299, 7.5 uM, repeats, 7.5 µM) was 36.84% and 36.67%, the Cell viability % ([4]; H-1299, 10 uM, repeats, 10 µM) was 36.64% and 31.8986% and the Cell viability % ([4]; H-1299, 15 uM, repeats, 15 µM) was 23.04% and 23.96%. For the same molecule, the Cell viability % ([4]; H-1299, 20 uM, repeats, 20 µM) was 17.01% and 14.68%, the viability at 0.1 µM [4, 17] was 86.7% and the viability at 1 µM ([4]; Homo sapiens, NCI-H1299, 48 h, H-1299, 1 uM, repeats, read-out: Cell viability %) was 69.9%. For the same molecule, the viability at 2.5 µM [4, 18] was 68%, the viability at 5 µM [4, 19] was 57.7% and the viability at 7.5 µM [4, 20] was 38.4%. It also gave a viability at 10 µM [4, 21] of 35.2%, a viability at 15 µM [4, 22] of 23.9% and a viability at 20 µM [4, 23] of 19.2%. It also gave an IC50 ([4]; Homo sapiens) of 6.89 µM.

`COc1cccc(/C=N/NC(=O)c2ccc(-c3cc4c(cc(-c5ccc(C(=O)N/N=C/c6cccc(OC)c6O)cc5)n4-c4ccc(C)cc4)n3-c3ccc(C)cc3)cc2)c1O` [Compound 5] gave a viability at 0.1 µM [1, 5] of 97.8%, a viability at 0.5 µM [1, 6] of 91.7% and a viability at 1 µM [1, 7] of 87.4%. The viability at 2.5 µM [1, 8] was 58.2%, the viability at 5 µM [1, 9] was 65.3% and the viability at 7.5 µM [1, 10] was 47.2%. For the same molecule, the viability at 10 µM [1, 11] was 45.5%, the viability at 15 µM [1, 12] was 28.9% and the viability at 20 µM [1, 13] was 21%. For the same molecule, the IC50 ([1]; Homo sapiens, U-118-MG) was 6.85 µM, the Cell viability % [1, 14] was 97.5% and 97.94% and the Cell viability % [1, 15] was 83.56% and 99.84%. For the same molecule, the Cell viability % [1, 16] was 101.0241% and 97.49% and 72.15%, the Cell viability % ([1]; U-118 MG, 1 uM, repeats) was 91.36% and 94.35% and the Cell viability % ([1]; U-118 MG, 2.5 uM, repeats) was 62.67% and 72.48%. The Cell viability % ([1]; U-118 MG, 5 uM, repeats) was 61.9341% and 54.55%, the Cell viability % ([1]; U-118 MG, 7.5 uM, repeats) was 44.6% and 36.58% and the Cell viability % ([1]; U-118 MG, 10 uM, repeats) was 44.7379% and 34.31%. For the same molecule, the Cell viability % ([1]; U-118 MG, 15 uM, repeats) was 30.3% and 23.7185%, the Cell viability % ([1]; U-118 MG, 20 uM, repeats) was 24.2419% and 18.84% and the viability at 48 h, 0.1 µM [2] was 104%. The viability at 48 h, 0.5 µM [2] was 105%, the viability at 48 h, 0.75 µM [2] was 84.2% and the viability at 48 h, 1 µM [2] was 105%. It also gave a viability at 48 h, 2.5 µM [2] of 96.8%, a viability at 48 h, 5 µM [2] of 84% and a viability at 48 h, 7.5 µM [2] of 74.5%. The viability at 48 h, 10 µM [2] was 76.7%, the viability at 48 h, 15 µM [2] was 63% and the viability at 48 h, 20 µM [2] was 52.2%. For the same molecule, the Cell viability % ([3]; HF-P4, 100 nM, 0.1 µM) was 105.3072% and 105.0738%, the Cell viability % ([3]; HF-P4, 500 nM, 0.5 µM) was 98.21% and 101.0423% and the Cell viability % ([3]; HF-P4, 750 nM, 0.75 µM) was 95.79% and 102.0649%. The Cell viability % ([3]; HF-P4, 1 uM, 1 µM) was 86.8% and 100.59%, the Cell viability % ([3]; HF-P4, 2.5 uM, 2.5 µM) was 91.7616% and 90.46% and the Cell viability % ([3]; HF-P4, 5 uM, 5 µM) was 65.3% and 72.65%. The Cell viability % ([3]; HF-P4, 7.5 uM, 7.5 µM) was 71.79% and 64.35%, the Cell viability % ([3]; HF-P4, 10 uM, 10 µM) was 58.3808% and 56.93% and the Cell viability % ([3]; HF-P4, 15 uM, 15 µM) was 60.12% and 45.66%. For the same molecule, the Cell viability % ([3]; HF-P4, 20 uM, 20 µM) was 55.03% and 53.24%, the IC50 [3] was greater than 20 µM and the viability at 0.1 µM [4, 17] was 113%. For the same molecule, the viability at 0.5 µM ([4]; Homo sapiens, NCI-H1299, 48 h, H-1299, 500 nM, repeats, read-out: Cell viability %) was 125%, the viability at 2.5 µM [4, 18] was 106% and the viability at 5 µM [4, 19] was 85.7%. It also gave a viability at 7.5 µM [4, 20] of 56.6%, a viability at 10 µM [4, 21] of 47.9% and a viability at 15 µM [4, 22] of 46.5%. The viability at 20 µM [4, 23] was 31.4% and the IC50 ([4]; Homo sapiens) was 10.1 µM.
